Assay results reported in patent US10709723B2, “Pharmaceutical anti-infective composition for inhalation” (GALEPHAR PHARMACEUTICAL RESEARCH, INC., priority 2006, dated 2020).
In brackets after ≈: the same amount, converted by molar mass. Where two headings read alike, the source gives them in different places.

Key:
[1] = tested on: planktonic Pseudomonas aeruginosa; assay: MIC on planktonic bacteria (NCCLS dilution standard); format: cell-based
Experimental: The determination of the minimal inhibitory concentration (MIC) is performed according to the standard of NCCLS (NCCLS, Methods for dilution Antimicrobial Susceptibility Tests for bacteria that grow aerobically; approved standards, sixth edition, M7-A6, vol. 23 no. 2, January 2003.

[2] = tested on: 12 day biofilm of Pseudomonas aeruginosa; assay: Bacterial count (CFU/ml) of 12-day biofilm after 24 hours with the products; format: cell-based; details: tobramycin 4 μg/ml alone; clarithromycin 100, 200 and 500 μg/ml alone; all combinations
Source text: Biofilms of Pseudomonas aeruginosa—strain PY O1 were formed according to the methods described by Ceri et al, the calgary biofilm device: new technology for rapid determination of antibiotic susceptibilities of bacterial biofilms, Journal of clinical microbiology, pp. 1771-1776, 1999 and Abdi-Ali et al, bactericidal activity of various antibiotics against biofilm-producing Pseudomonas aeruginosa, International Journal of Antimicrobial Agents 27, 196-200, 2006.
PY O1: is a cystic Fibrosis clinical mucoid strain of Pseudomonas aeruginosa received from the Erasme Hospital, Brussels.
After having shown that the number of Pseudomonas aeruginosa within the biofilms was stable after 12 days, the products listed in Table 1 were added to the media for the duration of 24 hours. Thereafter the biofilm was rinsed three times with a 0.01M phosphate buffer adjusted at pH 7.5 in order to remove all cells not bound to the biofilm. The microplate was then placed on ultrasonic bath at 35° C. for 5 minutes to allow the bacteria present in the biofilm to separate from such biofilm. A bacterial count was then performed (number of coloning forming unit CFU/ml). Each experience was done twice and the CFU counting was also repeated twice/experience.

[3] = In vitro lung deposition, Multistage Liquid Impinger (MLI); format: physicochemical; details: for lung concentration obtained per capsule: composition of example 6, epithelial liquid in the lung estimated at about 100 ml
Source text: The amount of macrolide agent inhaled shall be high enough to affect, in some way, the biofilm. It has to be noted that as the effect of macrolide derivatives on the biofilm is mediated through a non-antibacterial mechanism. […] Nevertheless, it is a another object of the present invention to provide a composition containing high concentrations (or amounts) of each of the aminoglycoside derivative and of the macrolide derivative i.e. at least more than 10%, preferably more than 15%, and more preferably more than 20% of the dry powder composition. It is indeed particularly interesting to achieve high lung doses of those therapeutic agents with the minimum amounts of inhalations because it makes the administration easier and more importantly increase the patient's compliance. It also decreases the nominal dose of each active ingredient and thus the adverse effects linked to these actives. In the present invention, the dry powder inhaler also provides a high Fine Particle Dose (FPD) and Fine Particle […] (FPF) when tested in vitro on a Multistage Liquid Impinger (MLI, Eur. Pharm, 5th Edition, chapter 2.9.18). The FPD and FPF are the parameters that predict in vivo lung deposition.
The in vitro lung deposition test was performed using equipment and conditions as described in the European Pharmacopoeia (5th edition, chapter 2.9.18—apparatus C). This equipment consists of a Multistage Liquid Impinger (MLI) and was operated with an air flow of 100 L/min during a period of time of 2.4 seconds to simulate inhalation capabilities of patients. The quantification of the deposition of each drug on each stage of the MLI was performed by HPLC equipped with a a Corona detector.

[4] = composition of example 6, 10 mg/capsule, MLI 100 L/min, Mean (n = 3)
[5] = composition of example 6, 10 mg/capsule, MLI 100 L/min, run MLI1
[6] = composition of example 6, 10 mg/capsule, MLI 100 L/min, run MLI2
[7] = composition of example 6, 10 mg/capsule, MLI 100 L/min, run MLI3

Structure (SMILES) | MIC [1] | Decrease of the number of CFU/ml of the 12-day biofilm versus the positive control [2] | FPD [3, 4] | Filter deposition [3, 4] | FPD [3, 5] | FPD [3, 6] | FPD [3, 7] | Stage 2 deposition [3, 7] | lung concentration obtained per capsule [3] | MIC ([1]; read-out: MIC)
CC[C@H]1OC(=O)[C@H](C)[C@@H](O[C@H]2C[C@@](C)(OC)[C@@H](O)[C@H](C)O2)[C@H](C)[C@@H](O[C@@H]2O[C@H](C)C[C@H](N(C)C)[C@H]2O)[C@](C)(OC)C[C@@H](C)C(=O)[C@H](C)[C@@H](O)[C@]1(C)O [Clarithromycin] | not sensitive | neither tobramycin 4 μg/ml nor clarithromycin at 100, 200 and 500 μg/ml alone are able to decrease the number of CFU/ml | 3.63 mg | 0.550 mg | 3.14 mg | 3.76 mg | 3.98 mg | 0.680 mg | 36.3 µg/mL | –
NC[C@H]1O[C@H](O[C@H]2[C@H](O)[C@@H](O[C@H]3O[C@H](CO)[C@@H](O)[C@H](N)[C@H]3O)[C@H](N)C[C@@H]2N)[C@H](N)C[C@@H]1O [Tobramycin] | – | neither tobramycin 4 μg/ml nor clarithromycin at 100, 200 and 500 μg/ml alone are able to decrease the number of CFU/ml | 4.26 mg | 0.760 mg | 3.60 mg | 4.45 mg | 4.72 mg | – | 42.6 µg/mL | 3.9 µg/mL (≈ 8.34 µM)
